This is an account of results in PubChem BioAssay (NCI).

Some test systems named below: TK-10 renal; SK-MEL-5 melanoma; SK-MEL-28 melanoma; SK-MEL-2 melanoma; CCRF-CEM leukemia; UO-31 renal; HOP-92 NSCLC; OVCAR-3 ovarian; LOX IMVI melanoma; IGROV1 ovarian; HCT-15 colon; KM12 colon; OVCAR-8 ovarian; ACHN renal; UACC-257 melanoma; HS 578T breast; MALME-3M melanoma; SK-OV-3 ovarian; NCI-H522 lung; SW-620 colon.
Common to all, as to experiment: NCI tumour cell line growth inhibition, 48 h

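Method: 48-hour compound exposure of cells in 96-well plates, five concentrations, linear interpolation of endpoints. TGI is the concentration that stops growth completely.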

For the molecule `NCCc1ccc(S(=O)(=O)O)cc1[N+](=O)[O-]`, the TGI in the assay on TK-10 renal, with SK-MEL-5 melanoma, with SK-MEL-28 melanoma, with SK-MEL-2 melanoma, in the assay with CCRF-CEM leukemia and in the assay with UO-31 renal was greater than 100 µM throughout. In addition, the TGI in the assay with HOP-92 NSCLC, with OVCAR-3 ovarian, in the assay on LOX IMVI melanoma, in the assay with IGROV1 ovarian, in the assay with HCT-15 colon and in the assay with KM12 colon was greater than 100 µM each time. Further, the TGI in the assay on OVCAR-8 ovarian, in the assay on ACHN renal, with UACC-257 melanoma, in the assay on HS 578T breast, with MALME-3M melanoma and in the assay on SK-OV-3 ovarian was greater than 100 µM throughout. The TGI with NCI-H522 lung and in the assay with SW-620 colon was greater than 100 µM each time.
With `CC(C)=CCC[C@@H](C)C1=C(N)C(O)=C(C)C(=O)C1=O`, the TGI with TK-10 renal is greater than 75 µM; in the assay on SK-MEL-5 melanoma, greater than 75 µM; with SK-MEL-28 melanoma it was greater than 75 µM; in the assay with SK-MEL-2 melanoma, greater than 75 µM; in the assay on CCRF-CEM leukemia it was greater than 70.9 µM; with UO-31 renal, greater than 75 µM. The TGI in the assay with HOP-92 NSCLC, with OVCAR-3 ovarian, in the assay with LOX IMVI melanoma, in the assay with IGROV1 ovarian, with HCT-15 colon and with KM12 colon was greater than 75 µM in each case. Moreover, the TGI was greater than 61.2 µM with OVCAR-8 ovarian; greater than 53.4 µM in the assay with ACHN renal; greater than 75 µM in the assay on UACC-257 melanoma; greater than 75 µM in the assay with HS 578T breast; greater than 75 µM in the assay on MALME-3M melanoma; greater than 75 µM in the assay on SK-OV-3 ovarian. Also, the TGI in the assay on NCI-H522 lung is 50.9 µM; in the assay with SW-620 colon, greater than 75 µM.
In the case of `N/C(=N\N=C\c1nc2ccccc2o1)c1cnccn1`, the TGI in the assay on TK-10 renal, in the assay on SK-MEL-5 melanoma, in the assay on SK-MEL-28 melanoma, with SK-MEL-2 melanoma, with CCRF-CEM leukemia and in the assay on UO-31 renal was greater than 100 µM each time. Moreover, the TGI with HOP-92 NSCLC, with OVCAR-3 ovarian, in the assay with LOX IMVI melanoma, with IGROV1 ovarian, in the assay on HCT-15 colon and in the assay on KM12 colon was greater than 100 µM each time. The TGI in the assay on OVCAR-8 ovarian was greater than 100 µM; in the assay on ACHN renal it was greater than 100 µM; in the assay with UACC-257 melanoma, greater than 100 µM; with HS 578T breast, greater than 100 µM; with MALME-3M melanoma, 4.38 µM; in the assay on SK-OV-3 ovarian, greater than 100 µM. The TGI in the assay with NCI-H522 lung and in the assay on SW-620 colon was greater than 100 µM throughout.
In the case of `Cc1nc2ccc(N=Nc3c(C)noc3C)cc2[nH]1`, the TGI in the assay with TK-10 renal is greater than 100 µM; in the assay with SK-MEL-5 melanoma it was 29.8 µM; in the assay on SK-MEL-28 melanoma it was greater than 100 µM; in the assay on SK-MEL-2 melanoma, greater than 100 µM; with CCRF-CEM leukemia, greater than 100 µM; in the assay on UO-31 renal, greater than 100 µM. Further, the TGI is 60.2 µM in the assay with HOP-92 NSCLC; 84.2 µM in the assay with OVCAR-3 ovarian; 39.2 µM in the assay on LOX IMVI melanoma; 34.3 µM with IGROV1 ovarian; greater than 100 µM in the assay with HCT-15 colon; greater than 100 µM with KM12 colon. Moreover, the TGI in the assay on OVCAR-8 ovarian was 89.6 µM; in the assay with ACHN renal, 86.2 µM; in the assay on UACC-257 melanoma it was greater than 100 µM; in the assay on HS 578T breast, 58.4 µM; in the assay on MALME-3M melanoma it was greater than 100 µM; in the assay on SK-OV-3 ovarian, 56.7 µM. For the same molecule, the TGI in the assay with NCI-H522 lung and with SW-620 colon was greater than 100 µM throughout.
For `CO/C(N)=C(\C#N)N=Cc1ccsc1`, the TGI with TK-10 renal is greater than 100 µM; with SK-MEL-5 melanoma, greater than 100 µM; in the assay on SK-MEL-28 melanoma it was greater than 100 µM; with SK-MEL-2 melanoma, greater than 100 µM; in the assay on CCRF-CEM leukemia it was 81 µM; with UO-31 renal, greater than 100 µM. The TGI in the assay on HOP-92 NSCLC is greater than 100 µM; with OVCAR-3 ovarian, greater than 100 µM; in the assay on LOX IMVI melanoma it was 36.7 µM; with IGROV1 ovarian, greater than 100 µM; with HCT-15 colon, greater than 100 µM; with KM12 colon, greater than 100 µM. The TGI with OVCAR-8 ovarian, in the assay with ACHN renal, with UACC-257 melanoma, in the assay on HS 578T breast, with MALME-3M melanoma and in the assay on SK-OV-3 ovarian was greater than 100 µM each time. In addition, the TGI is 79.6 µM in the assay on NCI-H522 lung and greater than 100 µM with SW-620 colon.
As to `C[C@H]1CCC/C=C/[C@@H]2C[C@H](OC(=O)CN(C)C)C[C@H]2[C@H](O)/C=C/C(=O)O1`, the TGI is 1.93 µM in the assay on TK-10 renal; 0.0944 µM in the assay with SK-MEL-5 melanoma; greater than 30.9 µM with SK-MEL-28 melanoma; 1.36 µM in the assay on SK-MEL-2 melanoma; greater than 100 µM in the assay on CCRF-CEM leukemia; 1.48 µM with UO-31 renal. The TGI in the assay on HOP-92 NSCLC is greater than 56.1 µM; with OVCAR-3 ovarian it was greater than 26.8 µM; with LOX IMVI melanoma it was 0.219 µM; with IGROV1 ovarian, greater than 29.7 µM; in the assay on HCT-15 colon, 5.54 µM; in the assay with KM12 colon, 0.235 µM. In addition, the TGI was 5.54 µM in the assay on OVCAR-8 ovarian; 11.4 µM in the assay on ACHN renal; 27.8 µM in the assay with UACC-257 melanoma; greater than 10.5 µM in the assay with HS 578T breast; 0.15 µM in the assay with MALME-3M melanoma; greater than 100 µM in the assay on SK-OV-3 ovarian. Besides, the TGI in the assay with NCI-H522 lung was found to be 1.39 µM; with SW-620 colon it was 4.53 µM.
As to `CC1OC(OC2C(OC(=O)[C@]34CCC(C)(C)C[C@H]3C3=CC[C@@H]5[C@@]6(C)CC[C@H](OC7OC(CO)C(O)C(O)C7OC7OC(CO)C(O)C(O)C7O)C(C)(C)[C@@H]6CC[C@@]5(C)[C@]3(C)CC4)OCC(O)C2O)C(O)C(O)C1OC1OCC(O)C(O)C1O` (stereo not given in full), the TGI is 21.7 µM with TK-10 renal; 28 µM with SK-MEL-5 melanoma; 6.04 µM with SK-MEL-28 melanoma; 17.2 µM in the assay with SK-MEL-2 melanoma; 42.3 µM in the assay with CCRF-CEM leukemia; 6.17 µM with UO-31 renal. Also, the TGI is 20.4 µM in the assay on HOP-92 NSCLC; greater than 100 µM in the assay on OVCAR-3 ovarian; 37.7 µM with LOX IMVI melanoma; 44.9 µM in the assay on IGROV1 ovarian; 32.1 µM with HCT-15 colon; 21.8 µM with KM12 colon. Besides, the TGI was found to be 38.9 µM with OVCAR-8 ovarian; 24.5 µM in the assay with ACHN renal; 9.17 µM with UACC-257 melanoma; 40.2 µM with HS 578T breast; 12.6 µM with MALME-3M melanoma; 31.9 µM in the assay on SK-OV-3 ovarian. Moreover, the TGI came out at 12.1 µM in the assay on NCI-H522 lung and 39.4 µM in the assay on SW-620 colon.
